One experiment has as its target T1, human GIPR (Homo sapiens, UniProt P48546).
T1 construct: expressed in transfected cells; crude membranes
T1 sequence (P48546 22-466): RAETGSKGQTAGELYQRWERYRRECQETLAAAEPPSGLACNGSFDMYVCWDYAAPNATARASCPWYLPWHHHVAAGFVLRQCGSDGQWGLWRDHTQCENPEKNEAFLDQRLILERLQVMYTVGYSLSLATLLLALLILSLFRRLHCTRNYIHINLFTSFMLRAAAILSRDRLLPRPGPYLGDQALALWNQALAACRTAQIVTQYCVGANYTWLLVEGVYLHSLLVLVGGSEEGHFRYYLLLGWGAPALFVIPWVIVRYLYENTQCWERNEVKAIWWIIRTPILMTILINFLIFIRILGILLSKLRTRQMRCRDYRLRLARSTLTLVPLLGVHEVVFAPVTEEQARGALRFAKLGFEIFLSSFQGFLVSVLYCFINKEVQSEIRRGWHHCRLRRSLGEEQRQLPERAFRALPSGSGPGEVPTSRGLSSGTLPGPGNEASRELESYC
As to the kind of experiment: [125I]-GIP binding, SPA with WGA beads, 0.1% bacitracin. The note with it: geometric mean, read-out: hGIPR Ki. The method in brief:
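Ki values are geometric means (SEM, n independent days), derived from four-parameter nonlinear regression of IC50. Membranes came from hGIPR-expressing CHO cells.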

The target in a further experiment is T2, human GcgR (Homo sapiens, UniProt P47871).
T2 construct: expressed in transfected cells; crude membranes
T2 sequence (P47871 26-477): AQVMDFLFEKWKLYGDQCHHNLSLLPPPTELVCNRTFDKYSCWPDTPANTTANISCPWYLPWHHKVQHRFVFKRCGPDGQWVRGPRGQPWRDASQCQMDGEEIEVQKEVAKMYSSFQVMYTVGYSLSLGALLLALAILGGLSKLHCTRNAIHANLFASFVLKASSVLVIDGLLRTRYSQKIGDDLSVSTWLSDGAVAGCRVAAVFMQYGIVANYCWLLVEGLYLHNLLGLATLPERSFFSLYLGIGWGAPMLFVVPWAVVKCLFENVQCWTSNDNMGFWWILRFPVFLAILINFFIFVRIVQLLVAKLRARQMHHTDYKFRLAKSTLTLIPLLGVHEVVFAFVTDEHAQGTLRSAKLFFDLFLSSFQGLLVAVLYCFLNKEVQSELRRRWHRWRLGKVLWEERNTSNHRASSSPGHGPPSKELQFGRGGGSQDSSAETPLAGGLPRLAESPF
Description: [125I]-Glucagon binding, SPA with WGA beads, 0.1% bacitracin. The note with it: geometric mean, read-out: hGcgR Ki. In outline:
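SPA competition binding with WGA beads on crude membranes from HEK293 cells stably expressing hGcgR. Buffer: 25 mM HEPES pH 7.4, 2.5 mM CaCl2, 1 mM MgCl2, 0.1% bacitracin, 0.003% Tween-20; 10-point 3-fold dilutions, NSB with 1 μM Gcg.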

Another experiment addresses T3, human GLP-1R (Homo sapiens, UniProt P43220).
T3 construct: expressed in transfected cells; crude membranes
As to the kind of experiment: [125I]-GLP-1 binding, SPA with WGA beads, 0.1% bacitracin. The note with it: geometric mean, read-out: hGLP1R Ki. In outline: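 Binding buffer was 25 mM HEPES pH 7.4 with 2.5 mM CaCl2, 1 mM MgCl2, 0.1% (w/v) bacitracin, 0.003% Tween-20 and EDTA-free protease inhibitors. Four-parameter regression gave IC50, converted to Ki (geometric mean, SEM, n independent days).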

By pKi is commonly meant the Ki on a negative log10 scale, so that one unit is a factor of ten.

SMILES strings stand for the structures. pKi: −log10 of the molar value. *1 amine or outer side, *2 acyl side, *3 side chain or, on linkers, in order; H or OH if unused. Where a SMILES comes first, the peptide text is derived from it. Side-chain parts run from the residue outwards. [ ]: non-standard residue; d: D form. The star is where a group is joined. C20 diacid = O=C(O)CCCCCCCCCCCCCCCCCCC(=O)*; αMePhe(2-F) = C[C@](N)(Cc1ccccc1F)C(=O)O; γGlu = O=C(O)[C@H](CCC(=O)[*:2])N[*:1]; αMeF = C[C@](N)(Cc1ccccc1)C(=O)O; 4Pal = N[C@@H](Cc1ccncc1)C(=O)O; AEEA = NCCOCCOCC(=O)O; Aib = CC(C)(N)C(=O)O Where only a bound is given, the exact number is not on record here.

T3 sequence (P43220 24-463): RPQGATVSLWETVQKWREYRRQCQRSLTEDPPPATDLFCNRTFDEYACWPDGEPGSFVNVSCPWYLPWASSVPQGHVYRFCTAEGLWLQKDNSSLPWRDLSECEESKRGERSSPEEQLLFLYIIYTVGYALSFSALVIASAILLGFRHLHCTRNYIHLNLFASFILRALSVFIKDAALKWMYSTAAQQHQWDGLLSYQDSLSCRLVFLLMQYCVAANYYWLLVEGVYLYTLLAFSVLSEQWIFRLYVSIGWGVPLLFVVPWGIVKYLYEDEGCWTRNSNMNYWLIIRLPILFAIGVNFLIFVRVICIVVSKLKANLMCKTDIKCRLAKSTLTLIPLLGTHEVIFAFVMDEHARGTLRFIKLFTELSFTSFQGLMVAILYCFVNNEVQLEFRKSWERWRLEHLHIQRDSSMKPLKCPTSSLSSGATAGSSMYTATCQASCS

Consider `CC[C@H](C)[C@H](NC(=O)[C@H](CO)NC(=O)[C@H](Cc1ccc(O)cc1)NC(=O)[C@H](CC(=O)O)NC(=O)[C@H](CO)NC(=O)[C@@H](NC(=O)[C@](C)(Cc1ccccc1F)NC(=O)[C@@H](NC(=O)CNC(=O)[C@H](CCC(=O)O)NC(=O)C(C)(C)NC(=O)[C@@H](N)Cc1ccc(O)cc1)[C@@H](C)O)[C@@H](C)CC)C(=O)N[C@@H](C)C(=O)N[C@@H](CC(C)C)C(=O)N[C@@H](CC(=O)O)C(=O)N[C@@H](CCCCN)C(=O)N[C@@H](CCCCNC(=O)COCCOCCNC(=O)COCCOCCNC(=O)CC[C@H](NC(=O)CCCCCCCCCCCCCCCCCCC(=O)O)C(=O)O)C(=O)N[C@@H](Cc1c[nH]cn1)C(=O)N[C@@H](CCC(N)=O)C(=O)NC(C)(C)C(=O)N[C@@H](CC(=O)O)C(=O)N[C@@H](Cc1ccccc1)C(=O)N[C@H](C(=O)N[C@@H](CCC(=O)O)C(=O)N[C@@H](Cc1ccncc1)C(=O)N[C@@H](CC(C)C)C(=O)N[C@@H](CC(C)C)C(=O)N[C@@H](CCC(=O)O)C(=O)N[C@H](C(=O)NCC(=O)N1CCC[C@H]1C(=O)N[C@@H](CO)C(=O)N[C@@H](CO)C(=O)NCC(=O)N[C@@H](C)C(=O)N1CCC[C@H]1C(=O)N1CCC[C@H]1C(=O)N1CCC[C@H]1C(=O)N[C@@H](CO)C(N)=O)[C@@H](C)O)C(C)C` [Example 38] (H-Y[Aib]EGT[αMePhe(2-F)]ISDYSIALDKK([AEEA-AEEA-γGlu-C20 diacid])HQ[Aib]DFVE[4Pal]LLETGPSSGAPPPS-NH2), for which the pKi at human GIPR is 10.23; on human GcgR, 6.74; on human GLP-1R it was 6.11.
Turning to `CC[C@H](C)[C@H](NC(=O)[C@H](CO)NC(=O)[C@H](Cc1ccc(O)cc1)NC(=O)[C@H](CC(=O)O)NC(=O)[C@H](CO)NC(=O)[C@@H](NC(=O)[C@](C)(Cc1ccccc1F)NC(=O)[C@@H](NC(=O)CNC(=O)[C@H](CCC(=O)O)NC(=O)C(C)(C)NC(=O)[C@@H](N)Cc1ccc(O)cc1)[C@@H](C)O)[C@@H](C)CC)C(=O)N[C@@H](C)C(=O)N[C@@H](CC(C)C)C(=O)N[C@@H](CC(=O)O)C(=O)N[C@@H](CCCCN)C(=O)N[C@@H](CCCCNC(=O)COCCOCCNC(=O)COCCOCCNC(=O)CC[C@H](NC(=O)CCCCCCCCCCCCCCCCCCC(=O)O)C(=O)O)C(=O)N[C@@H](Cc1c[nH]cn1)C(=O)N[C@@H](CCC(N)=O)C(=O)NC(C)(C)C(=O)N[C@@H](CC(=O)O)C(=O)N[C@@H](Cc1ccccc1)C(=O)N[C@H](C(=O)N[C@@H](CCC(=O)O)C(=O)N[C@@H](Cc1ccncc1)C(=O)N[C@@H](CC(C)C)C(=O)N[C@@H](CC(C)C)C(=O)N[C@@H](CCC(=O)O)C(=O)NCC(=O)NCC(=O)N1CCC[C@H]1C(=O)N[C@@H](CO)C(=O)N[C@@H](CO)C(=O)NCC(=O)N[C@@H](C)C(=O)N1CCC[C@H]1C(=O)N1CCC[C@H]1C(=O)N1CCC[C@H]1C(=O)N[C@@H](CO)C(N)=O)C(C)C` [Example 39] (H-Y[Aib]EGT[αMePhe(2-F)]ISDYSIALDKK([AEEA-AEEA-γGlu-C20 diacid])HQ[Aib]DFVE[4Pal]LLEGGPSSGAPPPS-NH2), the negative logarithm of the Ki (pKi) was 10.35 on human GIPR, 7.12 at human GcgR and 6.63 on human GLP-1R.
For the compound `CC[C@H](C)[C@H](NC(=O)[C@H](CO)NC(=O)[C@H](Cc1ccc(O)cc1)NC(=O)[C@H](CC(=O)O)NC(=O)[C@H](CO)NC(=O)[C@@H](NC(=O)[C@](C)(Cc1ccccc1F)NC(=O)[C@@H](NC(=O)CNC(=O)[C@H](CCC(=O)O)NC(=O)C(C)(C)NC(=O)[C@@H](N)Cc1ccc(O)cc1)[C@@H](C)O)[C@@H](C)CC)C(=O)N[C@@H](C)C(=O)N[C@@H](CC(C)C)C(=O)N[C@@H](CC(=O)O)C(=O)N[C@@H](CCCCN)C(=O)N[C@@H](CCCCNC(=O)COCCOCCNC(=O)COCCOCCNC(=O)CC[C@H](NC(=O)CCCCCCCCCCCCCCCCCCC(=O)O)C(=O)O)C(=O)N[C@@H](Cc1c[nH]cn1)C(=O)N[C@@H](CCC(N)=O)C(=O)NC(C)(C)C(=O)N[C@@H](CC(=O)O)C(=O)N[C@@H](Cc1ccccc1)C(=O)N[C@H](C(=O)N[C@@H](CCC(=O)O)C(=O)N[C@@H](Cc1c[nH]c2ccccc12)C(=O)N[C@@H](CC(C)C)C(=O)N[C@@H](CC(C)C)C(=O)N[C@@H](CCC(=O)O)C(=O)N[C@H](C(=O)NCC(=O)N1CCC[C@H]1C(=O)N[C@@H](CO)C(=O)N[C@@H](CO)C(=O)NCC(=O)N[C@@H](C)C(=O)N1CCC[C@H]1C(=O)N1CCC[C@H]1C(=O)N1CCC[C@H]1C(=O)N[C@@H](CO)C(N)=O)[C@@H](C)O)C(C)C` [Example 40] (H-Y[Aib]EGT[αMePhe(2-F)]ISDYSIALDKK([AEEA-AEEA-γGlu-C20 diacid])HQ[Aib]DFVEWLLETGPSSGAPPPS-NH2), the pKi was 10.23 at human GIPR, 7.29 at human GcgR and 6.52 at human GLP-1R.
Regarding `CC[C@H](C)[C@H](NC(=O)[C@H](CO)NC(=O)[C@H](Cc1ccc(O)cc1)NC(=O)[C@H](CC(=O)O)NC(=O)[C@H](CO)NC(=O)[C@@H](NC(=O)[C@](C)(Cc1ccccc1)NC(=O)[C@@H](NC(=O)CNC(=O)[C@H](CCC(=O)O)NC(=O)C(C)(C)NC(=O)[C@@H](N)Cc1ccc(O)cc1)[C@@H](C)O)[C@@H](C)CC)C(=O)N[C@@H](C)C(=O)N[C@@H](CC(C)C)C(=O)N[C@@H](CC(=O)O)C(=O)N[C@@H](CCCCN)C(=O)N[C@@H](CCCCNC(=O)COCCOCCNC(=O)COCCOCCNC(=O)CC[C@H](NC(=O)CCCCCCCCCCCCCCCCCCC(=O)O)C(=O)O)C(=O)N[C@@H](Cc1c[nH]cn1)C(=O)N[C@@H](CCC(N)=O)C(=O)NC(C)(C)C(=O)N[C@@H](CC(=O)O)C(=O)N[C@@H](Cc1ccccc1)C(=O)N[C@H](C(=O)N[C@@H](CCC(=O)O)C(=O)N[C@@H](Cc1ccncc1)C(=O)N[C@@H](CC(C)C)C(=O)N[C@@H](CC(C)C)C(=O)N[C@@H](CCC(=O)O)C(=O)N[C@H](C(=O)NCC(=O)N1CCC[C@H]1C(=O)N[C@@H](CO)C(=O)N[C@@H](CO)C(=O)NCC(=O)N[C@@H](C)C(=O)N1CCC[C@H]1C(=O)N1CCC[C@H]1C(=O)N1CCC[C@H]1C(=O)N[C@@H](CO)C(N)=O)[C@@H](C)O)C(C)C` [Example 41] (H-Y[Aib]EGT[αMeF]ISDYSIALDKK([AEEA-AEEA-γGlu-C20 diacid])HQ[Aib]DFVE[4Pal]LLETGPSSGAPPPS-NH2), the pKi on human GIPR is 9.84; at human GcgR, 6.12; on human GLP-1R, less than 6.04.
Turning to `CC[C@H](C)[C@H](NC(=O)[C@H](CO)NC(=O)[C@H](Cc1ccc(O)cc1)NC(=O)[C@H](CC(=O)O)NC(=O)[C@H](CO)NC(=O)[C@@H](NC(=O)[C@](C)(Cc1ccccc1)NC(=O)[C@@H](NC(=O)CNC(=O)[C@H](CCC(=O)O)NC(=O)C(C)(C)NC(=O)[C@@H](N)Cc1ccc(O)cc1)[C@@H](C)O)[C@@H](C)CC)C(=O)N[C@@H](C)C(=O)N[C@@H](CC(C)C)C(=O)N[C@@H](CC(=O)O)C(=O)N[C@@H](CCCCN)C(=O)N[C@@H](CCCCNC(=O)COCCOCCNC(=O)COCCOCCNC(=O)CC[C@H](NC(=O)CCCCCCCCCCCCCCCCCCC(=O)O)C(=O)O)C(=O)N[C@@H](Cc1c[nH]cn1)C(=O)N[C@@H](CCC(N)=O)C(=O)NC(C)(C)C(=O)N[C@@H](CC(=O)O)C(=O)N[C@@H](Cc1ccccc1)C(=O)N[C@H](C(=O)N[C@@H](CCC(=O)O)C(=O)N[C@@H](Cc1ccncc1)C(=O)N[C@@H](CC(C)C)C(=O)N[C@@H](CC(C)C)C(=O)N[C@@H](CCC(=O)O)C(=O)N[C@@H](CCC(N)=O)C(=O)NCC(=O)N1CCC[C@H]1C(=O)N[C@@H](CO)C(=O)N[C@@H](CO)C(=O)NCC(=O)N[C@@H](C)C(=O)N1CCC[C@H]1C(=O)N1CCC[C@H]1C(=O)N1CCC[C@H]1C(=O)N[C@@H](CO)C(N)=O)C(C)C` [Example 42] (H-Y[Aib]EGT[αMeF]ISDYSIALDKK([AEEA-AEEA-γGlu-C20 diacid])HQ[Aib]DFVE[4Pal]LLEQGPSSGAPPPS-NH2), the pKi was 10.41 at human GIPR, 7.00 at human GcgR and 6.25 on human GLP-1R.

(Values after patent US12723063B2, “GIPR-agonist compounds” (Eli Lilly and Company, priority 2019, dated 2026).)
